Activity calls are given as the source filed them. The calls are words filed in the database; no cut-off is given here.
Experiments:
[1] = biological target: T1, Thymidylate synthase (Lactobacillus casei, UniProt P00469); test: Competitive inhibition of thymidylate synthase purified from methotrexate-resistant Lactobacillus casei using 2'-deoxy[5-3H]uridine 5'-phosphate by radioisotope assay; set-up: species or system Lacticaseibacillus casei
T1 sequence (P00469 whole entry): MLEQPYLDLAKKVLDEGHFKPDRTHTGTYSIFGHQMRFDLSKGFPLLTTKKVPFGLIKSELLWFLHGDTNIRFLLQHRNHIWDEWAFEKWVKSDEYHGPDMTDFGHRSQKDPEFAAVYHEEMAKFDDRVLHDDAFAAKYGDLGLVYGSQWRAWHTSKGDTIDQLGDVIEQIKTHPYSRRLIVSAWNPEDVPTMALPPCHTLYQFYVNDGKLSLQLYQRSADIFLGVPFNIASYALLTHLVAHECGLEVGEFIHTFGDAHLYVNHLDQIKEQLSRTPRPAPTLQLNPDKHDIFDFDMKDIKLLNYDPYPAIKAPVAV

[2] = biological target: T2, Thymidylate synthase (Lactobacillus casei) (UniProt P00469); test: Irreversible inhibition of thymidylate synthase purified from methotrexate-resistant Lactobacillus casei using 2'-deoxy[5-3H]uridine 5'-phosphate preincubated at 4 uM for 12 mins in absence of co-factor; conditions: Lacticaseibacillus casei
T2 sequence (whole entry): T1 sequence (P00469 whole entry)

Compound	Ki [1] [µM]	inhibition [2]
O=c1[nH]c(=O)n([C@H]2C[C@H](O)[C@@H](COP(=O)(O)O)O2)cc1[N+](=O)[O-]	0.029	–
O=c1[nH]c(=O)n([C@H]2C[C@H](O)[C@@H](COP(=O)(O)O)O2)cc1S	0.04	–
N#Cc1cn([C@H]2C[C@H](O)[C@@H](COP(=O)(O)O)O2)c(=O)[nH]c1=O	0.55	inactive
